Data set [1] has as its system Primary cortical neurons. Put plainly: H2O2-induced oxidative stress (150 μM), MTS assay, comparison with known neuroprotectants. Type of data set: cell-based, rat. The following applies: 24 h pre-treatment, then harsh H2O2 treatment (150 μM). On the procedure: Primary cortical neurons were isolated from a 17 day old rat embryonic brain and seeded on 96-well plate at 50,000 cells/well in regular neurobasal medium for 2-3 week. Twice, half the amount of medium was replaced with fresh neurobasal medium containing no antioxidants. […] Other known neuroprotectants were dissolved in the proper solvent and diluted into final concentration as indicated. […] Each assay was performed in triplicate. After 24 hours, the cultures were evaluated for viability and mitochondrial function using a standard MTS Assay (Promega). The manufacturer's protocols were followed. Experiments were carried out following the procedures described in the Study Design described above. PAN-811 was dissolved in EtOH at 1 mg/ml (˜5 mM), and further diluted in neurobasal medium to final concentration at 0.1 μM, 1 μM, and 10 μM. Lipoic acid was dissolved in EtOH at concentration 240 mM, and further diluted in the neurobasal medium to final concentration at 10 uM, 25 uM, 50 uM and 100 uM. Vitamin E dissolved in EtOH at concentration 100 mM, and further diluted in the neurobasal medium to final concentration at 50 uM, 100 uM, 200 uM and 400 uM. Ginkgo Biloba was dissolved in dH2O at concentration 6 mg/ml, and further diluted in the neurobasal medium to final concentration at 2.5 ug/ml, 5 ug/ml, 25 ug/ml, 250 ug/ml. At the end of the treatment, the medium was replaced with 100 μl fresh pre-warmed neurobasal medium plus B27 (-AO). The plates were returned to the incubator at 37° C. with 5% CO2 for one hour. Subsequently 20 μl MTS reagent was added to each well and plates were incubated at 37° C. with 5% CO2 for an additional two hours. The absorbance at 490 nm for each well was recorded with the BioRad plate reader (Model 550). Wells containing medium alone were used as blanks. Each data point is the average of three separate assay wells. […] Two weeks old primary cultures were used for this set of study. Please see FIG. 1 for results.
(In general: Tetrazolium assays rely on reduction of a dye to a coloured formazan, in cell work by metabolically active cells.)

In data set [2] the test system is Cortical neurons. The note with it: for protection from neuronal cell death (morphology): 5 μM, hypoxia, FIG. 4.
Procedure: (§1) Experiments were performed in a 96-well plate format. Cortical neurons were seeded at a density of 50,000 cells/well on poly-D-lysine coated surface, and cultured in serum-free medium (NB plus B27 supplement) to obtain cultures high-enriched for neurons. Neurons were cultured for over 14 d.i.v. to increase cell susceptibility to excitatory amino acids (Jiang et al., 2001). Six replicate wells were treated as a group to facilitate assay quantitation.
(§2) To mimic the cerebral environments of a stroke, we established 3 in vitro model systems. The extreme H/H model (0.4 mM glucose) is a mimic of the environment in the central core of an infarct; the mild H/H model (1.63 mM glucose) is a mimic of the environment in the penumbra during MCAO; and the hypoxia only model (neurons in normal in vitro glucose concentration—25 mM) is a mimic of the environment in the penumbra after reperfusion since the possible cell death after reperfusion is predominantly a result of the hypoxic effect rather then energy failure.
(§3) Hypoxia/hypoglycemia was obtained by reducing glucose concentration down to 0.4 mM and 1.63 mM for extreme H/H and mild H/H respectively. BSS (116.0 mM NaCl, 5.4 mM KCl, 0.8 mM MgSO4.7H2O, 1.0 mM NaH2PO4, 1.8 mM CaCl2.2H2O, 26.2 mM NaHCO3, and 0.01 mM Glycine) or BSS with 25 mM glucose were de-gassed for 5 minutes prior to use. Culture medium in the plates for hypoxia was replaced with BSS or BSS with glucose. Meanwhile, culture medium in the plates for normoxia was replaced with non de-gassed BSS or BSS with glucose. Cells were committed to hypoxic conditions by transferring the plates into a sealed container (Modular Incubator Chamber-101TM, Billups-Rothenberg, Inc.), applying a vacuum for 20 minutes to remove O2 or other gases from the culture medium, and then refilling the chamber with 5% CO2 and 95% N2 at a pressure of 30 psi for 1 minute. The level of O2 in the chamber was determined to be zero with an O2 indicator (FYRITE Gas Analyzer, Bacharach, Inc.). Culture plates were maintained in the chamber for 6 hours. As an experimental control, duplicate culture plates were maintained under normal culture condition (5% CO2 and 95% ambient air) for the same duration. After a 6-hour treatment plates were removed from the chamber and the medium in both the hypoxic and normoxic cultures was replaced with a termination solution (DMEM supplemented with 1× sodium pyruvate, 10.0 mM HEPES, and 1×N2 supplement) containing 25 mM glucose and cultured in 5% CO2 and 95% ambient air conditions. […] MK801 was utilized as a positive control. Mitochondrial function and cell death were evaluated at 24 or 48 hours post H/H insult with the MTS and LDH analyses (see below).
Treatment with drug was continued during and subsequent to a 24-hour period of hypoxia. Cellular morphology and function (MTS and LDH assays) were measured 24 or 48 hours subsequent to the hypoxic insult.
(§4) The MTS assay is a colorimetric assay that measures the mitochondrial function in metabolically active cells. This measurement indirectly reflects cell viability. […] 20 μl of MTS reagent (Promega) are added to each well of the 96 well assay plates containing the samples in 100 μl of culture medium. The plate is then incubated in a humidified, 5% CO2 atmosphere at 37° C. for 1-2 hours until the color is fully developed. The absorbance at 490 nm was recorded using a Bio-Rad 96 well plate reader.
Lactate dehydrogenase (LDH) assay is based on the reduction of NAD by the action of LDH.
Data set [3] in a line: Solubility of PAN-811 in solvents. The note with it: PEG-300/EtOH (70%/30%) versus EtOH.
Procedure: PAN-811 was dissolved in either EtOH or DMSO at 1 mg/ml (˜5 mM), in PEG-300/EtOH (70%/30%) at 5 mg/ml (˜25 mM), and further diluted in medium to final concentration at 1 μM, 5 μM, 20 μM and 50 μM. […] Equal volume of solvents (EtOH, DMSO, and PEG-300/EtOH) was added to cells to test the solvent effects on the assay.
The subject of data set [4] is male Sprague-Dawley rats, MCAO.
Data set [5] relates to Cortical neurons. The following applies: for protection from mild H/H: pre-treatment 24 h, H/H 6 h.
Procedure: as §1, §2, §3, §4
Lactate dehydrogenase (LDH) assay is based on the reduction of NAD by the action of LDH. The resulting reduced NAD (NADH) is utilized in the stoichiometric conversion of a tetrazolium dye. If cell-free aliquots of medium from cultures given different treatments are assayed, then the amount of LDH activity can be used as an indicator of relative cell death as well as a function of membrane integrity. A 50 μl aliquot of culture medium from a well in tested 96-well plate is transferred into a well in unused plate and supplemented with 25 μl of equally-mixed Substrate, Enzyme and Dye Solutions (Sigma).
For data set [6], the system named is enriched neuronal cultures (cerebellar tissue). In words: In vitro models of excitotoxicity (H/H, glutamate, staurosporine, veratridine), MTT assay. The following applies: MTT 24 hrs after insult.
Procedure: Neuronal culture. Enriched neuronal cultures were prepared from 15-day-old Sprague-Dawley rat embryos. Using aseptic techniques, the rat embryos were removed from the uterus and placed in sterile neuronal culture medium. Using a dissecting microscope, the brain tissue was removed from each embryo, with care taken to discard the meninges and blood vessels. […] Cells were dissociated by trituration of the tissue and were plated at a density of 5×10^5 cells/well onto 48-well culture plates precoated with poly(L-lysine). Cultures were maintained in a medium containing equal parts of Eagle's basal medium (without glutamine) and Ham's F-12k medium supplemented with 10% heat-inactivated horse serum, 10% fetal bovine serum, 600 μg/ml glucose, 100 μg/ml glutamine, 50 U/ml penicillin, and 50 μg/ml streptomycin. After 48 h, 10 μM cytosine arabinoside was added to inhibit non-neuronal cell division. Cells were used in experiments after 7 days in culture.
Four in vitro models of excitotoxicity were studied. Cells were either exposed to H/H conditions for 3 hrs or treated for 45 min with either glutamate (100 μM), staurosporine (1 μM) or veratridine (10 μM). All cells were cotreated with or without PAN-811 (10 μM) in Locke's solution. At the conclusion of the respective excitotoxic exposures, the condition medium (original) was replaced. H/H was induced by incubating the cells in a humidified airtight chamber saturated with 95% nitrogen, 5% CO2 gas for 3 hrs. in Locke's solution without added glucose.
24 hrs. after the excitotoxic insult cell viability assessments were made. Cell damage was quantitatively assessed using a tetrazolium salt colorimetric assay with 3-(4,5-dimethylthiazol-2-yl)-2,5-diphenyltetrazolium (MTT; Sigma Chemical Co., St. Louis, Mo.). Briefly, the dye was added to each well (final concentration, 1.5 mg/ml), cells were incubated with MTT-acidified isopropanol (0.1 N HCl in isopropanol), and the absorbance intensity (540 nm) of each sample was measured in a 96-well plate reader. Values are expressed relative to vehicle-treated control cells that were maintained on each plate, and the percentage change in cell viability was calculated.
The subject of data set [7] is Primary cortical neurons. In words: H2O2-induced oxidative stress (60-70 μM), MTS assay. The note with it: 1-10 μM, 24 h pre-treatment, then 60-70 μM H2O2, MTS. The class given is cell-based, rat. On the procedure:
Primary cortical neurons were isolated from a 17 day old rat embryonic brain and seeded on 96-well plate at 50,000 cells/well in regular neurobasal medium for 2-3 week. Twice, half amount of medium was replaced with fresh neurobasal medium containing no antioxidants. […] Each assay was performed in triplicate. […] After 24 hours, the cultures were evaluated for viability and mitochondrial function using a standard MTS Assay (Promega). The manufacturer's protocols were followed. Experiments were carried out following the procedures described in the study design. At the end of the treatment, all treatments and medium were replaced with 100 μl fresh pre-warmed neurobasal medium plus B27 (-AO). The plates were put back into the incubator at 37° C. with 5% CO2 for one hour, then 20 μl MTS reagent was added to each well and plates were incubated at 37° C. with 5% CO2 for an additional two hours. The absorbance at 490 nm for each well was recorded with the BioRad plate reader (Model 550). Wells containing medium alone well was used as blanks. Each data point is the average of three separate assay wells. […] Three weeks old primary cultures were used for this set of study. Please see FIG. 10 for results. Experiments were carried out following the same procedures as experiment 1.

For data set [8], the system named is enriched neuronal cultures (cerebellar tissue). In words: Neurotoxicity of PAN-811, MTT assay. The following applies: 24 hrs.
Procedure: Neuronal culture. Enriched neuronal cultures were prepared from 15-day-old Sprague-Dawley rat embryos. Using aseptic techniques, the rat embryos were removed from the uterus and placed in sterile neuronal culture medium. Using a dissecting microscope, the brain tissue was removed from each embryo, with care taken to discard the meninges and blood vessels. […] Cells were dissociated by trituration of the tissue and were plated at a density of 5×10^5 cells/well onto 48-well culture plates precoated with poly(L-lysine). […]
3.3.1.2 Neurotoxicity of PAN-811. […] Cell viability was determined in the MTT assay.
3.1.3.4 MTT Assay. […] Cell damage was quantitatively assessed using a tetrazolium salt colorimetric assay with 3-(4,5-dimethylthiazol-2-yl)-2,5-diphenyltetrazolium (MTT; Sigma Chemical Co., St. Louis, Mo.). Briefly, the dye was added to each well (final concentration, 1.5 mg/ml), cells were incubated with MTT-acidified isopropanol (0.1 N HCl in isopropanol), and the absorbance intensity (540 nm) of each sample was measured in a 96-well plate reader. Values are expressed relative to vehicle-treated control cells that were maintained on each plate, and the percentage change in cell viability was calculated.
Data set [9] relates to Primary cortical neurons. Put plainly: ROS generation, CM-H2DCFDA / c-DCF fluorescence. The class given is cell-based, rat. The note with it: at 10 μM. On the procedure: Primary cortical neurons were isolated from a 17 day old rat embryonic brain and seeded in 96-well plates at 50,000 cells/well in regular neurobasal medium for 2-3 weeks. Twice, half the amount of medium was replaced with fresh neurobasal medium without antioxidants. […] Untreated cells loaded with the dye were used as controls to calculate the c-DCF fluorescence change. Each assay was performed in triplicate. Experiments were carried out following the procedures described in the Study Design described above. The c-DCF fluorescence at 485/520 nm (Ex/Em) for each well was recorded with the BMG polar star plate reader. Wells containing cells without dye were used as blanks. Each data point is the average of three separate assay wells. Untreated cells loaded with the dye were used as a control to calculate the c-DCF fluorescence change. Two weeks old primary cultures were used for the study.

Data set [10] concerns Cortical neurons. In words: Extreme hypoxia/hypoglycemia (H/H) model (0.4 mM glucose).
Procedure: as §1
To mimic the cerebral environments of a stroke, we established 3 in vitro model systems. […]
Hypoxia/hypoglycemia was obtained by reducing glucose concentration down to 0.4 mM and 1.63 mM for extreme H/H and mild H/H respectively. […] The level of O2 in the chamber was determined to be zero with an O2 indicator (FYRITE Gas Analyzer, Bacharach, Inc.). […] Mitochondrial function and cell death were evaluated at 24 or 48 hours post H/H insult with the MTS and LDH analyses (see below).
The MTS assay is a colorimetric assay that measures the mitochondrial function in metabolically active cells. […] The absorbance at 490 nm was recorded using a Bio-Rad 96 well plate reader. […]

“Also recorded” adds a separate entry of the source. Like-named read-outs stand apart in the source and are kept apart here.

Experimental findings from US7456179B2, “Methods of treating ischemic related conditions” (priority 2003, dated 2008) are described below.

`O=C(O)CCCC[C@@H]1CCSS1` (racemic) [Lipoic acid, reference compound]: in the data set with Primary cortical neurons [1] (known neuroprotectants), the neuroprotective capacity result is on record as “minimal neuroprotective capacity”.

For the compound `C[C@]12N[C@H](Cc3ccccc31)c1ccccc12` [MK801, reference compound], the “protection from neuronal cell death (morphology)” value with Cortical neurons [2] is “efficient protection from neuronal cell death”.

Take `NC(=S)N/N=C/c1ncccc1N` [PAN-811, 3-aminopyridine-2-carboxaldehyde thiosemicarbazone]: the “block of neuronal cell death and mitochondrial dysfunction” value in the data set on Cortical neurons [2] (2 μM, 24 hours prior to, during and subsequent to 24-hour hypoxia) was “completely blocking neuronal cell death and mitochondrial dysfunction”. Besides, in the data set with Cortical neurons [2] (2 μM, 48 h prior to, during 24-hour hypoxia and 48 h subsequent), the “block of hypoxia-induced cell death” value is listed as “completely blocked the cell death”. Also, the “protection from neuronal cell death (morphology)” value in the data set on Cortical neurons [2] was “efficient protection from neuronal cell death”. For the same compound, the “protection from sole hypoxia-induced neurotoxicity” value with Cortical neurons [2] (at 2 μM) is reported as “completely protected”. Moreover, the solubility entry in data set [3] is on record as “better solubility in PEG-300/EtOH comparing to EtOH alone”. The “range of infarct volume” value in data set [4] (1 mg/kg IV 10 minutes prior to 2 h MCAO, 24 hours after surgery) is 42.36-387.08 mm^3. In addition, in data set [4] (1 mg/kg IV 10 minutes prior to 2 h MCAO, 24 hours after surgery, n 14), the mean infarct volume turned out to be 225.85 mm^3. Besides, the “% protection (reduction in average infarct volume vs vehicle)” value in data set [4] (1 mg/kg IV 10 minutes prior to MCAO, p<0.05) is given as 23%. The “rats that died (of 7 deaths from severe stroke or SAH)” value in data set [4] (1 mg/kg IV, 6 of the 7 deaths were vehicle rats) is 1 rat. For the same compound, in data set [4] (rat, in vivo), the tolerability / toxicity result is “well tolerated and relatively non-toxic”. For the same compound, the “protection from mild H/H” value with Cortical neurons [5] (2 μM, Apr. 17, 2003, culture age 13 days, 48 h post H/H) was 100% protected; in the data set on Cortical neurons [5] (2 μM, Jul. 9, 2003, culture age 13 days, 20 h post H/H) it was 100% protected; in the data set on Cortical neurons [5] (2 μM, May 2, 2003, culture age 22 days, 24 h post H/H) it was 100% protected; with Cortical neurons [5] (2 μM, May 8, 2003, culture age 42 days, 24 h post H/H), 100% protected; with Cortical neurons [5] (5 μM, Jul. 25, 2003, culture age 15 days, 24 h post H/H, test range started from 5 μM) it was 100% protected; in the data set on Cortical neurons [5] (10 μM, Jul. 13, 2003, culture age 15 days, 24 h post H/H, test range started from 5 μM), 100% protected. Besides, in the data set on Cortical neurons [5] (5 μM, 24 hours before and during 6-hour H/H, 15-day culture, MTS and LDH 17 hours post), the “protection from H/H-induced mitochondria dysfunction and neuronal cell death” value is “completely protected”. Besides, in the data set with Cortical neurons [5] (at 2 μM), the “protection from mild H/H induced neurotoxicity” value is “completely protected”. The “protection from neuronal cell death (LDH)” value with Cortical neurons [5] (treatment 24 h before 6-hour H/H only, LDH 48 hours after H/H) was “marginally”. Besides, the “protection from damage by staurosporine” value in data set [6] (10 μM PAN-811, 1 μM staurosporine 45 min) was roughly 47%. In data set [6] (10 μM PAN-811, 10 μM veratridine 45 min), the “protection from damage by veratridine” value is on record as roughly 39%. For the same compound, in data set [6] (10 μM PAN-811, 100 μM glutamate 45 min), the “protection from damage by glutamate” value is listed as roughly 75%. For the same compound, the “protection from damage by hypoxia/hypoglycemia” value in data set [6] (10 μM PAN-811, 3 hour H/H) was determined as 92%. The neuroprotective capacity result is “good neuroprotective capacity” with Primary cortical neurons [7] and “good neuroprotective capacity; also recorded: significant neuroprotection” in the data set with Primary cortical neurons [1] (PAN-811 at 1-10 μM). Moreover, the neurotoxicity result in data set [8] (concentrations up to 100 μM) is listed as “only slight toxicity”. Moreover, the maximal toxicity in data set [8] (highest concentration tested (100 μM)) was 7.8%. The “reduction of the basal level of ROS generation” value in the data set with Primary cortical neurons [9] is roughly 50%. In the data set with Primary cortical neurons [9] (1 h, then 300 μM H2O2 for 2 hours), the “reduction of H2O2-induced ROS generation” value is recorded as roughly 30%. In the data set on Cortical neurons [10] (at 100 μM), the “block of extreme H/H-induced neuronal cell death” value is given as “only partially blocked”. Also, the “protection from neuronal cell death” value in the data set on Cortical neurons [10] (at ≦50 μM, extreme H/H (data not shown)) is on record as “did not protect neuronal cell death”.

In the case of Vitamin E [reference compound], the neuroprotective capacity entry in the data set with Primary cortical neurons [1] (known neuroprotectants) was “minimal neuroprotective capacity”.
